Laboratory results from US20240122880A1, “COMPOSITIONS FOR TREATING HYPERCHOLESTEROLEMIA AND PREPARATION METHODS THEREOF” (UNIVERSITY OF SAN AGUSTIN, priority 2020, published 2024).

Columns and labels:
lipase = assay: Lipase inhibition assay (glycerol generated from cleavage of triglycerides, Sigma MAK046 kit); assay type: biochemical; settings: relative to untreated lipase enzyme
Description: The lipase inhibition activities of the pineapple flesh, core, and stem crude extracts were determined by measuring the glycerol generated from the cleavage of triglycerides. The storage and preparation instruction were done according to the stated protocol of MAK, 046, Sigma Aldrich®, St. Louis, MO, USA.
Twenty μL of 750 mg/mL flesh, core, and stem at 100 mg/mL final concentration crude extracts were added to their respective wells.
Two μL of the lipase and Orlistat™ at 100 mg/mL and 10 mg/mL, respectively, were added to wells to serve as negative and positive control. All standards and samples were adjusted to 50 μL by adding Lipase Assay Buffer. A 100-μL reaction mix consisting of 93 μL Lipase Assay Buffer, 2 μL peroxidase substrate, 2 μL enzyme mix and 3 μL of lipase substrate was added to each well.
Absorbance was read at 570 nm every five minutes using CLARIOStar™ microplate reader at 37° C. incubation at slow kinetics mode for two hours. The percent lipase inhibition was calculated relative to the untreated lipase enzyme.

HMG-CoA reductase = target: T1, HMG-CoA reductase (Homo sapiens, UniProt P04035); assay: HMG-CoA reductase inhibition assay (NADPH oxidation at 340 nm, Sigma CS1090 kit); assay type: biochemical; settings: sample concentration 2.1 μg/mL
T1 construct: by the catalytic subunit of 3-hydroxy-3-methylglutaryl CoA reductase; purchased Sigma Aldrich CS1090
T1 sequence (P04035 340-888 limits assumed): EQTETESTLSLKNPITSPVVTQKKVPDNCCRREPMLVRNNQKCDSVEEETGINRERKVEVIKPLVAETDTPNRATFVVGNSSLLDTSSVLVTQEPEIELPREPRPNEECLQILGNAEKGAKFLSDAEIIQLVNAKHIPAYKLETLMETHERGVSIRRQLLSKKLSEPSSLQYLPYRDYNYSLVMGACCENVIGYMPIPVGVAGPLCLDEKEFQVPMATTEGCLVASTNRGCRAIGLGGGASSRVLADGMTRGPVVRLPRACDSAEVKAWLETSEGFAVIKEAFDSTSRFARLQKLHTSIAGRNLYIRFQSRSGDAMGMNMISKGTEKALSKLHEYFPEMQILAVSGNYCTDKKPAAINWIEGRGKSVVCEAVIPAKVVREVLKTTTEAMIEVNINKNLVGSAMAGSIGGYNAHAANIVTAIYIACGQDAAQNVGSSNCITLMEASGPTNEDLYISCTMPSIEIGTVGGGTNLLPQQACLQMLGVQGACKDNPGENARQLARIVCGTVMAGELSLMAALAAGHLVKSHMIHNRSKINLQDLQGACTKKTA
Description: The assay was based on the spectrophotometric measurement of the decrease in absorbance at 340 nm, which represents the oxidation of Nicotinamide Adenine Dinucleotide Phosphate (NADPH) by the catalytic subunit of 3-hydroxy-3-methylglutaryl CoA reductase in the presence of substrate HMG-CoA. All storage and reagent preparations were performed according to the protocol (CS1090, Sigma Aldrich®, St. Louis, MO, USA).
Assay buffer (1×) in the HMG-CoA assay kit was added to all samples. 184 μL for the blank, 182 μL for the activity control, 181 μL for the inhibition control and samples according to the manufacturer's instructions in the Sigma-Aldrich® CS1090 assay kit.
Pravastatin™ (2.1 μg/mL) positive control, 20 μL of […], core (100 mg/mL final concentration) and 20 μL of 50 mg/mL stem (5 mg/mL final concentration) crude extracts were added to its assay buffers. Lower reaction concentration of extracts (20 μL of 250 mg/mL to obtain 25 mg/mL final concentration of flesh and core crude extracts) was also tested against HMG-CoA reductase enzyme.
Four μL of NADPH and 12 μL HMG-CoA substrate were also added to the treatments. The HMG-CoA reductase enzyme (2 μL) was kept on ice until added to the activity, inhibition controls, and samples.
The absorbance at 340 nm was monitored for every 20 seconds for up to 10 minutes using CLARIOStar™ plate reader. […]

Row | SMILES | Lipase inhibition activity (lipase; sample concentration 10 mg/mL) | Lipase inhibition activity (lipase; sample concentration 100 mg/mL) | HMG-COA reductase inhibition activity (HMG-CoA reductase)
1 | CCCCCCCCCCC[C@@H](C[C@@H]1OC(=O)[C@H]1CCCCCC)OC(=O)[C@H](CC(C)C)NC=O [Orlistat ™, Orlistat] | 100±0.05% | 100 ± 0.05% | 
2 | CC[C@H](C)C(=O)O[C@H]1C[C@H](O)C=C2C=C[C@H](C)[C@H](CC[C@@H](O)C[C@@H](O)CC(=O)O)[C@H]21 [Pravstatin ™, Pravastatin] |  |  | 82%
